EPA's ToxRefDB 2

Experiments:
mouse [1] = settings: Combined chronic toxicity/carcinogenicity; cd1; Oral; Feed; dose end: 104 week; group: systemic; systemic / in life observation / body weight / body weight gain + systemic / in life observation / clinical signs / lacrimation + systemic…
rat [2] = settings: Prenatal developmental toxicity study, other, Oral, Gavage/Intubation, dose end: 16 GD
mouse [3] = settings: Prenatal developmental toxicity study, other, Oral, Gavage/Intubation, dose end: 15 GD
dog = settings: Chronic toxicity, beagle, Oral, Feed, dose end: 52 week, group: systemic
rat [4] = settings: Multigenerational reproductive toxicity study, sprague dawley, Oral, Feed, dose end: 2 generation
rat [5] = settings: Combined chronic toxicity/carcinogenicity, sprague dawley, Oral, Feed, dose end: 104 week, group: systemic
rabbit = settings: Prenatal developmental toxicity study, new zealand white, Oral, Gavage/Intubation, dose end: 19 GD
[6] = group: developmental, developmental / developmental malformation / bone / incomplete ossification + developmental / developmental malformation / bone / manus …
[7] = group: maternal, systemic / in life observation / body weight / body weight gain + systemic / in life observation / food consumption / food consumption
[8] = group: maternal, systemic / in life observation / body weight / body weight gain + systemic / in life observation / food consumption / food consumption + …
[9] = group: maternal, systemic / in life observation / food consumption / food consumption
[10] = group: developmental, developmental / developmental malformation / bone / [other] + developmental / developmental malformation / eye / open eye + developmental / …
[11] = group: developmental, developmental / developmental malformation / bone / [other] + developmental / developmental malformation / heart / defect a-v septum + …
[12] = group: maternal, systemic / in life observation / clinical signs / abnormal posture + systemic / in life observation / clinical signs / drooping eyelids (…
[13] = group: maternal, systemic / in life observation / clinical signs / piloerection + systemic / in life observation / clinical signs / respiration (rales) + …
[14] = systemic / pathology microscopic / eye / opacity + systemic / organ weight / kidney / absolute + systemic / organ weight / kidney / relative…
[15] = group: offspring, systemic / in life observation / body weight / offspring (pup) weight gain + developmental / offspring survival late / [other] / [other]
[16] = group: offspring, systemic / in life observation / body weight / offspring (pup) weight gain + developmental / offspring survival late / [other] / [other] + …
[17] = group: parental, systemic / pathology microscopic / eye / cataract + systemic / in life observation / body weight / body weight gain + systemic / in life …
[18] = group: parental, systemic / pathology microscopic / eye / cataract + systemic / in life observation / clinical signs / tongue ulcers
[19] = systemic / pathology microscopic / eye / opacity
[20] = group: developmental, developmental / developmental malformation / bone / incomplete ossification
[21] = group: developmental, developmental / developmental malformation / bone / incomplete ossification + developmental / developmental malformation / bone / full …

[Br-].[Br-].c1cc[n+]2c(c1)-c1cccc[n+]1CC2 [Diquat dibromide] showed an LEL (mouse [1]) of 12 mg/kg/day, an LOAEL (mouse [1]) of 12 mg/kg/day and an NEL (mouse [1]) of 3.56 mg/kg/day. For the same compound, the NOAEL (mouse [1]) was 3.56 mg/kg/day, the LEL (rat [2]; [6]) was 40 mg/kg/day and the LOAEL (rat [2]; [6]) was 40 mg/kg/day. For the same compound, the NEL (rat [2]; [6]) was 12 mg/kg/day, the NOAEL (rat [2]; [6]) was 12 mg/kg/day and the LOAEL (rat [2]; [7]) was 12 mg/kg/day. The NOAEL (rat [2]; [8]) was 4 mg/kg/day, the LEL (rat [2]; [9]) was 4 mg/kg/day and the NEL (rat [2]; [9]) was < 4 mg/kg/day. It also gave an LOAEL (mouse [3]; [10]) of 2 mg/kg/day, an NOAEL (mouse [3]; [10]) of 1 mg/kg/day and an LEL (mouse [3]; [11]) of 1 mg/kg/day. For the same compound, the NEL (mouse [3]; [11]) was < 1 mg/kg/day, the LOAEL (mouse [3]; [12]) was 2 mg/kg/day and the NOAEL (mouse [3]; [12]) was 1 mg/kg/day. For the same compound, the LEL (mouse [3]; [13]) was 1 mg/kg/day, the NEL (mouse [3]; [13]) was < 1 mg/kg/day and the LOAEL (dog; systemic / pathology microscopic / eye / opacity + systemic / organ weight / epididymis / relative to body weight) was 2.5 mg/kg/day. It also gave an LEL (dog; systemic / pathology microscopic / eye / opacity + systemic / organ weight / epididymis / relative to body weight + systemic / pathology …) of 2.5 mg/kg/day, an NEL (dog; [14]) of 0.5 mg/kg/day and an NOAEL (dog; [14]) of 0.5 mg/kg/day. For the same compound, the NEL (rat [4]; [15]) was 4 mg/kg/day, the NOAEL (rat [4]; [15]) was 4 mg/kg/day and the LEL (rat [4]; [16]) was 12 mg/kg/day. For the same compound, the LOAEL (rat [4]; [16]) was 12 mg/kg/day, the NEL (rat [4]; [17]) was 0.8 mg/kg/day and the NOAEL (rat [4]; [17]) was 0.8 mg/kg/day. The LEL (rat [4]; [18]) was 4 mg/kg/day, the LOAEL (rat [4]; [18]) was 4 mg/kg/day and the LOAEL (rat [5]; systemic / pathology microscopic / eye / cataract) was 0.58 mg/kg/day. For the same compound, the NOAEL (rat [5]; systemic / pathology microscopic / eye / cataract + systemic / in life observation / body weight / body weight gain + systemic / pathology …) was 0.19 mg/kg/day, the LEL (rat [5]; [19]) was 0.24 mg/kg/day and the NEL (rat [5]; [19]) was < 0.24 mg/kg/day. For the same compound, the LEL (rabbit; [20]) was 1 mg/kg/day, the NEL (rabbit; [20]) was < 1 mg/kg/day and the LOAEL (rabbit; [21]) was 10 mg/kg/day. It also gave an NOAEL (rabbit; [21]) of 3 mg/kg/day, an LEL (rabbit; [7]) of 3 mg/kg/day and an LOAEL (rabbit; [7]) of 3 mg/kg/day. For the same compound, the NEL (rabbit; [8]) was 1 mg/kg/day and the NOAEL (rabbit; [8]) was 1 mg/kg/day.
